In patent publication US20250195601A1, “TURMERIC OIL ESSENTIAL-OIL BISABOLENE SESQUITERPENOIDS IN THE TREATMENT OF NON-NEURODEGENERATIVE DISEASES” (UNIVERSIDAD DE CUENCA, priority 2023, published 2025):

Columns and labels:
Type in all cases: in vivo, human
[1] = tested on: patient with mixed cerebral palsy, epilepsy, constipation, mental retardation; assay: Clinical course, Case 4; conditions: with baclofen, before turmeric oil
Excerpt: Patient. They were the child of non-consanguineous parents, born of a twin pregnancy by cesarean section at 30 weeks' gestation. The patient had multiple complications in their neonatal period with prolonged mechanical ventilation, including neuro-infection and neonatal seizures.
Central hypotonia and peripheral hypertonia, dystonia and dyskinesia, ROT++++/++, bilateral plantar flexor reflex were present.
No advances regarding […] neurological condition were identified. The pharmacological therapy included baclofen to improve muscle tone and levetiracetam to control seizures.
Scoliosis, retractions, and joint deformities were still visible. Dystonias and dyskinesias were persistent.
In the subsequent 7.5 years, the patient had epileptic seizures of irregular onset and insufficient advances in their motor development. Administration of turmeric oil began with a dose of 27 mg per day.

[2] = tested on: patient with Guillain-Barré syndrome, flaccid tetraplegia; assay: Clinical course and muscle strength, Case 5; conditions: after three weeks of hospitalization, before turmeric oil
Excerpt: Patient. They were the child of non-consanguineous parents. Parents referred that one day the patient woke up but could not walk. Noteworthy, the day before this event, they received a COVID vaccine. The patient was taken to a hospital and evaluated in the emergency room. Demyelinating motor polyradiculoneuropathy of severe degree with distal predominance, more significant in lower extremities was reported after performing electromyography and nerve conduction velocity analysis. On the third day at the hospital, the patient lost walking, sitting, neck control and lower and upper extremities mobility. No mechanical ventilation was required.
Thus, the patient was prostrate, and it was recommended to start administering turmeric oil in a dose of 21.6 mg per day.

[3] = tested on: patient with executive functions impairment, epilepsy, mental retardation, attention deficit; assay: Clinical course, Case 1; conditions: before turmeric oil
Procedure: […], due to their academic failure and their refusal to continue taking methylphenidate, it was decided to start using turmeric oil in a dosage of 36 mg/day.
The turmeric oil and two anticonvulsants (valproic acid and clobazam) were administered to the patient.
Conversely, a cognitive enrichment in the patient's profile was evident. This enhancement was reflected in their academic performance and […] general life development. The patient presented seizures relapse and maintained antiepileptic drugs administration.

With CC[C@@H](C(N)=O)N1CCCC1=O [levetiracetam] as the compound, how does the seizures [1] read?
The seizures was “not controlled”.

Which condition at discharge [2] does the source give for gamma globulin here?
The condition at discharge was “no improvement”.

How did the “result of methylphenidate treatment” value [3] turn out when COC(=O)C(c1ccccc1)C1CCCCN1 (stereo not drawn) [prolonged-release methylphenidate, methylphenidate] was run?
The value was “poor results”.
